Data set [1] concerns tracheal secretion of phenol red. Kind of data set: Secretostimulating activity: tracheal secretion of phenol red after oral administration to non-anaesthetized mice. The class given is in vivo. The following applies: for ED50: Table I, non-anaesthetized mice, promotion of tracheal phenol red secretion, calculated from regression curves. As for the experimental part:
The increase in the tracheal secretion of phenol red is a measure of bronchosecretolytic activity. The relevant activity of the test substances was studied after oral administration to non-anaesthetized mice. The ED50 -values indicated in Table I were calculated using the regression curves.

In a further data set the test system is bronchial mucus. Kind of data set: Mucosecretolytic activity in dogs: viscosity of bronchial mucus after i.v. administration. Conditions: for Viscosity, 1 hour after administration: 1 hour after 10 mg/kg i.v.; for Viscosity, 1 hour after administration / Viscosity, initial value: mucus 1% w/v in 0.1M tris-buffer pH 7; for reduction in the viscosity of the bronchial mucus (in words): i.v., dogs, identical quantity by weight; for Viscosity, initial value: immediately before administration, 10 mg/kg i.v., baseline. The class given is in vivo, mongrel dogs. As for the experimental part: Bronchial mucus was removed by means of a bronchoscope from anaesthetized mongrel dogs immediately before and 1 hour after intravenous administration of the test substances and taken up in phosphate buffer. After dialyzation and freeze-drying, the mucus samples were taken up in 0.1M tris-buffer (pH 7) (final concentration 1% w/v). Viscosity was measured by means of a rotary viscosimeter (as manufactured by Contraves, Stuttgart).

The test system of the next data set is mice. Conditions: p.o., under identical conditions; cited from earlier work.
Data set [2] can be described thus: Acute oral toxicity in mice. The following applies: mouse, in vivo, p.o. The source says:
The compounds according to the invention show low oral toxicity in acute tests.

Counter-ions that a name gives are not always drawn. Like-named read-outs stand apart in the source and are kept apart here.

Usually ED50 stands for the dose at which the effect has come halfway, by size or by number of responders. For “2-(methylthio-3-pyridyl)-oxazolo(4,5-c) pyridine dihydrochloride [Example 10]”, the ED50 in data set [1] is 12 mg/kg.
For the molecule `Nc1c(Br)cc(Br)cc1CN[C@H]1CC[C@H](O)CC1` [Ambroxol, trans-4-(2-amino-3,5-dibromobenzyl)-aminocyclohexanol, reference compound], in data set [1] (Mus musculus, read-out: ED50), the median effective dose (ED50) is 250 mg/kg. In the data set on bronchial mucus, the “Viscosity, 1 hour after administration” value is recorded as 2.3 mPa × s; the “reduction in the viscosity of the bronchial mucus (in words)” value is reported as “distinct reduction in the viscosity of the bronchial mucus”; the “Viscosity, initial value” amounted to 3.8 mPa × s. Also, in the data set with mice, the “toxicity compared with 2-(pyridyl-3-methylthio)-pyrimidine hydrochloride (in words)” value was “slidingly less toxic”.
Broadly, the LD50 is the dose at which mortality reaches 50%. As to `c1cnc(SCc2cccnc2)nc1` [Example 1, 2-(pyridyl-3-methylthio)-pyrimidine hydrochloride], the median effective dose (ED50) in data set [1] (Mus musculus, read-out: ED50) was 1.5 mg/kg. For the same molecule, in data set [1] (mice, among compounds of Table I), the “activity in promoting tracheal secretion of phenol red (in words)” value is recorded as “strongest activity”. The “effect in promoting the secretion of phenol red relative to Ambroxol” value in data set [1] (mice, times stronger than Ambroxol) was “approximately 160 times”. In the data set with bronchial mucus, the “Viscosity, 1 hour after administration” value was found to be 1.2 mPa × s; the “reduction in the viscosity of the bronchial mucus (in words)” value is listed as “even more distinct reduction in the viscosity of the bronchial mucus”; the “Viscosity, initial value” is recorded as 3.9 mPa × s. Also, in data set [2], the LD50 came to 1160 mg/kg.
With `c1ccc(CSc2ncccn2)nc1` [Example 2, 2-(pyridyl-2-methylthio)-pyrimidine hydrochloride], the median effective dose (ED50) in data set [1] (Mus musculus, read-out: ED50) was 400 mg/kg.
Consider `Cc1ccnc(SCc2cccnc2)n1` [Example 3, 2-(pyridyl-3-methylthio)-4-methyl-pyrimidine hydrochloride], for which the ED50 in data set [1] (Mus musculus, read-out: ED50) is 10 mg/kg.
For the molecule `Cc1cc(C)nc(SCc2cccnc2)n1` [Example 4, 2-(pyridyl-3-methylthio)-4,6-dimethyl-pyrimidine hydrochloride], the ED50 in data set [1] (Mus musculus, read-out: ED50) is 12 mg/kg.
The same measure, in the same setting: the result for `c1ccc(SCc2cccnc2)nc1` [Example 5, 2-(pyridyl-3-methylthio)-pyridine dihydrochloride] reads 2.1 mg/kg.
Still for that read-out and setting: under `c1ccc(CSc2ccccn2)nc1` [Example 6, 2-(pyridyl-2-methylthio)-pyridine dihydrochloride] stands 6.3 mg/kg.
For `c1cncc(CSc2nc3ccccc3o2)c1` [Example 7], the ED50 in data set [1] (Mus musculus, read-out: ED50) was 15 mg/kg.
Still for that read-out and setting: the result for `Cc1ccc2nc(SCc3cccnc3)oc2c1` [Example 8, hydrochloride] reads 15 mg/kg; that for `c1ccc(CSc2nc3ccccc3o2)nc1` [Example 9, 2-(methylthio-2-pyridyl)-benzoxazole oxalate], 45 mg/kg.

Source of the values: patent publication US4866066A, “Thiomethylpyridine derivatives and their use for eliciting a bronchosecretolytic or mucolytic response” (Ludwig Heumann & Co. GmbH, priority 1982, dated 1989).
